Assay results from the NIST ThermoML archive (doi:10.1016/j.jct.2018.10.006).
Numbers after ± are expanded uncertainties.

Assay: Molar enthalpy of transition or fusion
Conditions: Crystal 2; DSC

## O=P([O-])([O-])[O-].[Cs+].[Ni+2] [cesium nickel monophosphate]
  Molar enthalpy of transition or fusion: 0.336 ± 0.0287 kcal/mol
